Experimental data: ChEMBL document CHEMBL1201862, “PubChem BioAssay data set” (2004)
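Dose response: 5 concentrations. Exposure: 48 h. Format: 96-well plates. Endpoint: linear interpolation; highest concentration if not reached. Abbreviation: GI50, concentration required for 50% inhibition of growth.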 The source made the active and inactive calls. No stated cut-off is given here; in the data, active = GI50 up to about 1.1 µM and inactive = higher.

Experiments:
Assay in all cases: inhibition of tumour cell growth, NCI panel, 48 h
HT-29 = test system: HT-29
HCT-15 = test system: HCT-15
LOX IMVI = test system: LOX IMVI
SK-MEL-28 = test system: SK-MEL-28
UACC-62 = test system: UACC-62
A498 = test system: A498
MOLT-4 = test system: MOLT-4
CAKI-1 = test system: CAKI-1
NCI-H226 = test system: NCI-H226
A549 = test system: A549
OVCAR-3 = test system: OVCAR-3
HCC 2998 = test system: HCC 2998
ACHN = test system: ACHN
SF-268 = test system: SF-268
786-0 = test system: 786-0
NCI-H522 = test system: NCI-H522
UO-31 = test system: UO-31
HCT-116 = test system: HCT-116
UACC-257 = test system: UACC-257
SN12C = test system: SN12C

Row | SMILES | GI50 (HT-29) | GI50 (HCT-15) [µM] | GI50 (LOX IMVI) | GI50 (SK-MEL-28) | GI50 (UACC-62) | GI50 (A498) | GI50 (MOLT-4) | GI50 (CAKI-1) | GI50 (NCI-H226) | GI50 (A549) | GI50 (OVCAR-3) | GI50 (HCC 2998) | GI50 (ACHN) | GI50 (SF-268) | GI50 (786-0) | GI50 (NCI-H522) | GI50 (UO-31) | GI50 (HCT-116) | GI50 (UACC-257) | GI50 (SN12C)
1 | NS(=O)(=O)c1ccc(NC(=O)Nc2cccc3ccccc23)cc1 | 60.3 µM (inactive) | 91.4 | 43.1 µM (inactive) | 39.4 µM (inactive) | 23.6 µM (inactive) | 22.5 µM (inactive) | > 100 µM (inactive) | > 100 µM (inactive) | 27.2 µM (inactive) | 40.7 µM (inactive) | 46.9 µM (inactive) | 27.6 µM (inactive) | 33.2 µM (inactive) | 19.9 µM (inactive) | 19 µM (inactive) | 19.4 µM (inactive) | 16.1 µM (inactive) | 39.8 µM (inactive) | > 100 µM (inactive) | 45.5 µM (inactive)
2 | COc1cccc2c3cccc(OC)c3c3[nH]cnc3c12 | 1.64 µM (inactive) | 1.76 | 1.98 µM (inactive) | 5.24 µM (inactive) | 16.7 µM (inactive) | 18.1 µM (inactive) | 2.29 µM (inactive) | 16.9 µM (inactive) | 15.9 µM (inactive) | 1.57 µM (inactive) | 13.9 µM (inactive) | 3.46 µM (inactive) | 8.81 µM (inactive) | 4.54 µM (inactive) | 1.58 µM (inactive) | 1.55 µM (inactive) | 1.66 µM (inactive) | 1.63 µM (inactive) | 17.7 µM (inactive) | 5.45 µM (inactive)
3 | C=C1[C@H](OCC(C)C)[C@@H](OC(=O)C(C)CC)[C@@H](O)C(C)(C)/C=C/[C@H](C)C(=O)[C@@]2(O)C[C@H](C)[C@H](O)[C@@H]2[C@H]1OC(=O)C(C)CC (stereo not given in full) | 2.56 µM (inactive) | 7.82 | 4.2 µM (inactive) | 10.2 µM (inactive) | 3.92 µM (inactive) | 3.28 µM (inactive) | 2 µM (inactive) | 3.32 µM (inactive) | 5.73 µM (inactive) | 1.38 µM (inactive) | 4.94 µM (inactive) | 2.84 µM (inactive) | 3.02 µM (inactive) | 4.78 µM (inactive) | 4.1 µM (inactive) | 8.63 µM (inactive) | 0.499 µM (active) | 4.88 µM (inactive) | 5.22 µM (inactive) | 7.29 µM (inactive)
4 | O=C(Oc1ccc(OC(Oc2ccccc2)c2ccccc2)cc1)c1ccccc1 (stereo not given) | 22.9 µM (inactive) | > 10 | 22.1 µM (inactive) | 17.1 µM (inactive) | > 31.6 µM (inactive) | 18.6 µM (inactive) | 16 µM (inactive) | > 10 µM (inactive) | > 31.6 µM (inactive) | 21.1 µM (inactive) | 25.4 µM (inactive) | 17.6 µM (inactive) | 26.7 µM (inactive) | 13 µM (inactive) | > 31.6 µM (inactive) | 49.2 µM (inactive) | 16 µM (inactive) | 16.1 µM (inactive) | 17.9 µM (inactive) | 28.8 µM (inactive)
5 | CN(Cc1ccccc1)/C(=N\C#N)N(Cc1ccccc1)Cc1ccccc1 | 14.7 µM (inactive) | 26.6 | 16.4 µM (inactive) | 27.3 µM (inactive) | 20.4 µM (inactive) | 44.8 µM (inactive) | 10.5 µM (inactive) | 20.1 µM (inactive) | 28.8 µM (inactive) | 31 µM (inactive) | 18 µM (inactive) | 34.8 µM (inactive) | 24.3 µM (inactive) | 34.4 µM (inactive) | 31.5 µM (inactive) | 18.1 µM (inactive) | 26.5 µM (inactive) | 18.7 µM (inactive) | 21.6 µM (inactive) | 34.7 µM (inactive)
6 | C=CCC1(OCc2ccccc2)C(=O)C(=O)OC1C1COC(C)(C)O1 (stereo not given) | > 100 µM (inactive) | > 100 | > 100 µM (inactive) | > 100 µM (inactive) | > 100 µM (inactive) | > 100 µM (inactive) | > 100 µM (inactive) | > 100 µM (inactive) | > 100 µM (inactive) | > 100 µM (inactive) | > 100 µM (inactive) | > 100 µM (inactive) | > 100 µM (inactive) | > 100 µM (inactive) | > 100 µM (inactive) | > 100 µM (inactive) | > 100 µM (inactive) | > 100 µM (inactive) | > 100 µM (inactive) | > 100 µM (inactive)
7 | O=C1C2=C(CC3C(C2)C3(Br)Br)C(=O)C2=C1CC1C(C2)C1(Br)Br (stereo not given) | > 100 µM (inactive) | > 100 | 82.4 µM (inactive) | > 100 µM (inactive) | > 100 µM (inactive) | > 100 µM (inactive) | > 100 µM (inactive) | > 100 µM (inactive) | > 100 µM (inactive) | > 100 µM (inactive) | > 100 µM (inactive) | > 100 µM (inactive) | > 100 µM (inactive) | > 100 µM (inactive) | > 100 µM (inactive) | 34.6 µM (inactive) | > 100 µM (inactive) | > 100 µM (inactive) | > 100 µM (inactive) | > 100 µM (inactive)
